From US9181286B2, “Pantothenate derivatives for the treatment of neurologic disorders” (Retrophin, Inc., priority 2012, dated 2015)

What was measured:
HEK 293T cells = assay: Acetyl-CoA level in HEK 293T cells by mass spectrometry; format: cell-based, human; settings: 200 μM compound, p<0.0005
Experimental: FIG. 1 is a bar graph showing the levels of acetyl CoA in human HEK 293T cells, as measured by mass spectrometry, following treatment with the compounds of Examples 2, 5, 7 and 12.
The compounds of Examples 2, 5, 7 and 12 were tested in immortalized human cells (HEK 293T). The amount of acetyl-CoA (the downstream result of PANK) following administration of the compounds of Examples 2, 5, 7 and 12 were measured by mass spectrometry.
Treatment of HEK 293T cells with 20 μM of the compound of Example 7 afforded a 38% increase in acetyl CoA over baseline (p<0.005).

Pank1−/− mice = assay: Liver Coenzyme A (mBBr-CoA, HPLC) in Pank1−/− mice; format: in vivo
Experimental: Compounds of the invention were tested for efficacy in Pank1^−/− mice (strain 129SvJ×C57BL/6J background) which were compared with age-matched Pank1^+/+ (strain 129SvJ×C57BL/6J) littermates, ages 8-12 weeks. Each mouse was identified with a coded ear tag and weighed on the first day of testing. Each compound was administered to 4-5 mice by intraperitoneal injection at a dose of 1.2 μmoles/g body weight in 5 μL dimethylsulfoxide once daily for 5 days, and mice were then fasted overnight, weighed and euthanized. Untreated mice received 5 μL dimethylsulfoxide once daily for 5 days and then were fasted overnight prior to weighing and euthanasia. Livers were excised from each mouse, aliquots were snap-frozen in liquid nitrogen, and stored at −80° C. Within 7 days, liver samples were thawed on ice, weighed and analyzed for coenzyme A content as described below. Efficacy was indicated by a statistically significant increase in the liver Coenzyme A levels in the Pank1^−/− mice as compared to the liver from untreated Pank1^−/− mice and by equivalence in comparison with Coenzyme A levels in untreated Pank1^+/+ mice.
CoA Measurements: Extraction of Fibroblasts and Liver and Derivatization of Coenzyme A Prior to High Pressure Liquid Chromatography (HPLC) […]
Coenzyme A Quantification by HPLC […]

[1] = system: Escherichia coli K-12 strain SJ16; assay: SJ16 recovery (in vitro bacterial testing, growth without pantothenate); format: cell-based; settings: test compound 8 μM in growth medium, 37° C., 18 hours, solid medium without calcium pantothenate (non-permissive)
Experimental: Thus, it serves as a useful assay in determining whether a compound can rescue an organism deficient in PANK, the cause of PKAN. Compounds of the present invention were tested for toxicity and for the ability to support growth of Escherichia coli K-12 strains SJ16 (see, e.g., Jackowski et al., J. Bacteriol., 148, 926-932, 1981) and DV70 (see, e.g., Vallari et al., J. Bacteriol., 169, 5795-5800, 1987) under permissive and non-permissive conditions. The test compound in a solvent (dimethylsulfoxide, DMSO) was added to growth medium at a final concentration of 8 μM. Solvent alone (DMSO) was added to the growth medium at a final concentration ≦0.1% as a control.
Strain SJ16 was grown at 37° C. for 18 hours on a solid medium containing agar (1.5%), M9 minimal essential salts (see, Miller, Experiments in Molecular Genetics. Cold Spring Harbor Laboratory, Cold Spring Harbor, N.Y., 1972), glucose (0.4%), methionine (50 μg/ml), and with (permissive) or without (non-permissive) calcium pantothenate (1 μM). Lack of growth with calcium pantothenate supplementation indicated toxicity. Growth without calcium pantothenate supplementation indicated the ability of the bacteria to metabolize the compound to yield pantothenate or β-alanine.

## COC(=O)CCNC(=O)[C@H](O)C(C)(C)COP(=O)(N[C@@H](C)C(=O)OC)Oc1ccccc1 (stereo partly drawn) [Example 2, methyl 3-((2R)-2-hydroxy-4-(((((S)-1-methoxy-1-oxopropan-2-yl)amino)(phenoxy)phosphoryl)oxy)-3,3-dimethylbutanamido)propanoate]
HEK 293T cells
  increase in acetyl CoA over baseline: 42%
Pank1−/− mice; PANK knockout mice, liver mBBr CoA, FIG. 2, compared with normal mice
  levels of CoA in PANK knockout mice (in words): restored levels of CoA to those seen in normal mice
Pank1−/− mice; pank1 KO mice, intraperitoneal 1.2 μmoles/g body weight once daily for 5 days, fasted overnight, liver, n=5
  pmol mBBR-CoA/mg Liver, Mean: 563.358 pmol mBBR-CoA/mg Liver
[1]
  SJ16 Recovery: Yes
